Marks after values point to notes of the source that are not given here.
Columns and labels:
[1] = tested on: canine radial artery segments; experiment: Norepinephrine-induced contraction of pretreated canine radial artery segments in organ chambers; assay type: cell-based; conditions: for Maximal constriction response to norepinephrine, % of KCl response: KCl 30 mmol/L
Description: (§1) Canine radial arteries were harvested without pedicles, and incubated in control buffer or solutions of papavarine (10^−6M), 2, 3-butadione monoxime (BDM, 10^−6M) (a putative protein phosphatase) or phenoxybenzamine (10^−6M) for a period of 30 minutes. The arteries were then washed with buffer and stored in a drug-free culture medium for a set time period (2 hours, 24 hours or 48 hours per example). After storage, vasopressors norepinephrine or phenylephrine were added at incremental concentrations ranging from 0.7 to 3.5 μmol/L (norepinephrine) or 0.300 to 1.5 μmol/L (phenylephrine) to all arterial samples to attempt to induce spasticity or vasoconstriction. The degree of vasoconstriction was then quantified in organ chambers. The responses of the arterial samples to norepinephrine or phenylephrine were compared with spasticity or constriction with receptor-independent potassium chloride (KCl) at 30 mmol/L.
(§2) The maximum responses of untreated and treated radial artery segments of KCl, phenylephrine and norepinephrine (in grams of tension) are summarized in Table 1. The constriction (contraction) responses to phenylephrine and norepinephrine given below are represented as a percentage of the responses to KCl, i.e. 100×(grams tension norepinephrine/grams tension KCl).

[2] = tested on: canine radial artery segments; experiment: Phenylephrine-induced contraction of pretreated canine radial artery segments in organ chambers; assay type: cell-based; conditions: for Constriction response to the maximum concentration of phenylephrine, % of KCl response: KCl 30 mmol/L
Description: as §1, §2

[3] = tested on: radial artery segments (endothelium); experiment: Endothelial relaxation response to acetylcholine of stored radial artery segments; assay type: cell-based, canine
Text: The endothelium contributes to the overall vascular tone by tonic release of autacoids such as nitric oxide among other vasoactive substances. In addition, any attenuation of function related to autacoid release by phenoxybenzamine or its diluents would be undesirable.

[4] = tested on: human radial artery segments; experiment: Phenylephrine-induced vasoconstriction of human radial artery rings in organ chambers; assay type: cell-based; conditions: 15 μM PE
Description: Radial artery (RA) segments were obtained from patients having elective coronary artery bypass grafting with or without cardiopulmonary bypass at the Crawford Long Hospital of Emory University. A modified Allen's test was performed to assess the adequacy of collateral circulation to the hand preoperatively. The RA was harvested with its pedicle containing the venae comitantes, perivascular fat and areolar tissue (no fasciotomy) using a “no-touch” technique. Branches of the RA were ligated with vascular clips. A subset of the radial artery grafts had the musculofascial tissue incised (with fasciotomy) to expose the aerolar tissue adjacent to the graft. The RA was then placed in a solution containing 20 mL heparinized blood, 1.6 mL 1% lidocaine and 0.4 mL papaverine (30 mg/mL) for approximately 30 minutes. […] Prior to its placement in the aortocoronary position, a small segment of the RA was obtained and immediately placed in Krebs-Henseleit (K-H) buffer (118 mmol/L NaCl, 4.7 mmol/L KCl, 1.2 mmol/L KH2PO4, 1.2 mmol/L MgSO4, 2.5 mmol/L CaCl2, 12.5 mmol/L NaHCO3, and 10 mmol/L glucose) at 4° C., pH 7.4 and transported to the Cardiothoracic Research Laboratory.
The harvested radial artery segment with or without fasciotomy was placed into K-H buffer pH 7.4 with either 10, 100 or 1000 μM PBZ or vehicle. The radial artery was flushed intraluminally twice with this solution, once at the beginning and once at the end of a 30 minute incubation period, which approximates the time between RA harvest and placement in the aortocoronary position. In addition, Control RA segments were obtained prior to intraoperative pretreatment of the conduit with the papaverine/lidocaine solution and received no other treatment. The segments were prepared for placement in organ chambers by carefully skeletonizing them in cold K-H buffer and cutting them into rings three to five mm in length. The rings were then mounted on stainless steel hooks, connected to FT-03 force displacement transducers, and placed into Radnoti organ chambers (Radnoti Glass, Monrovia, Calif. containing 7 mL of oxygenated (95% O2, 5% CO2) K-H buffer at 37° C. and pH 7.4. Indomethacin (10 μmol/L) was added to the buffer to block responses to endogenous prostanoids. The rings were stabilized for one hour with frequent buffer changes and set to a predetermined tension that allowed 75% of maximal contraction to 30 mM potassium chloride (KCl).
The rings were then incubated with increasing concentrations of PE (0.5 to 15 μM) or NE (0.5 to 15 μM). After the highest concentration of alpha adrenergic agent was achieved, 30 mM KCl was added to the bath to quantify the maximal nonreceptor-mediated constriction. In randomly selected vessels, the integrity of the radial artery endothelium was also tested for its receptor-dependent relaxation response to incremental concentrations of acetylcholine (ACh), a stimulator of nitric oxide synthase. The rings were precontracted with the thromboxane A2 mimetic U46619 (1.4 nmol/L), and then exposed to increasing concentrations of Ach (1 nmol/L to 11.7 μmol/L) in the presence of 10 μM indomethacin.
The changes in isometric force were quantified using an analog-to-digital converter sampling at 2 Hz. The responses were analyzed using a Windows-based videographics program ([…], Wake Forest University, Winston-Salem, N.C.). The force of contraction elicited by the exposure to increasing concentrations of PE and NE was expressed as a percentage of the maximal contraction generated by KCl in each ring. The degree of relaxation after exposure to ACh was expressed as the percent tension reduction from the maximal force of contraction obtained from U46619.
If a significant difference between groups was assigned by ANOVA, a post-hoc Student-Newman-Keuls test was applied to locate the source of differences. A p value of <0.05 was considered to be statistically significant. All data are reported as means±the standard error of the mean.

[5] = tested on: human radial artery segments; experiment: Norepinephrine-induced vasoconstriction of human radial artery rings in organ chambers; assay type: cell-based
Description: (§3) Radial artery (RA) segments were obtained from patients having elective coronary artery bypass grafting with or without cardiopulmonary bypass at the Crawford Long Hospital of Emory University. A modified Allen's test was performed to assess the adequacy of collateral circulation to the hand preoperatively. The RA was harvested with its pedicle containing the venae comitantes, perivascular fat and areolar tissue (no fasciotomy) using a “no-touch” technique. Branches of the RA were ligated with vascular clips. A subset of the radial artery grafts had the musculofascial tissue incised (with fasciotomy) to expose the aerolar tissue adjacent to the graft. […]
(§4) The rings were then incubated with increasing concentrations of PE (0.5 to 15 μM) or NE (0.5 to 15 μM). After the highest concentration of alpha adrenergic agent was achieved, 30 mM KCl was added to the bath to quantify the maximal nonreceptor-mediated constriction. […]
(§5) The changes in isometric force were quantified using an analog-to-digital converter sampling at 2 Hz. The responses were analyzed using a Windows-based videographics program ([…], Wake Forest University, Winston-Salem, N.C.). The force of contraction elicited by the exposure to increasing concentrations of PE and NE was expressed as a percentage of the maximal contraction generated by KCl in each ring. […]

[6] = tested on: human radial artery endothelium; experiment: Endothelial function: relaxation to acetylcholine of U46619-precontracted human radial artery rings; assay type: cell-based; conditions: 12 μM ACh; without fasciotomy; PBZ at 1000 μM where used
Description: as §3, §4, §5

[7] = 2 Hours drug-free storage after 30 min incubation with 10^−6M drug
[8] = 24 Hours drug-free storage after 30 min incubation with 10^−6M drug
[9] = 48 Hours drug-free storage after 30 min incubation with 10^−6M drug
[10] = 48 hours of storage, did not reach significance
[11] = after washing (2 hours) or 24 or 48 hours after the 30-minute pretreatment, 10^−6M
[12] = 2 hours after 30 min pretreatment with 10^−6M drug
[13] = 24 hours after 30 min pretreatment with 10^−6M drug
[14] = 48 hours after 30 min pretreatment with 10^−6M drug

Row | Compound | Contraction response to norepinephrine from resting force (maximum response) [1, 7] | Contraction response to norepinephrine from resting force (maximum response) [1, 8] | Contraction response to norepinephrine from resting force (maximum response) [1, 9] | Contraction response to phenylephrine from resting force (maximum response) [2, 7] | Contraction response to phenylephrine from resting force (maximum response) [2, 8] | Contraction response to phenylephrine from resting force (maximum response) [2, 9] | Maximal constriction response to norepinephrine, % of KCl response [1, 12] | Constriction response to the maximum concentration of phenylephrine, % of KCl response [2, 14] | other results
1 | COc1ccc(Cc2nccc3cc(OC)c(OC)cc23)cc1OC [papaverine] | 7.65 ± 0.72 grams of tension | 10.37 ± 0.26 grams of tension | 12.55 ± 1.22 grams of tension | 14.29 ± 0.76 grams of tension | 12.33 ± 0.76 grams of tension | 10.46 ± 0.52 grams of tension |  |  | Maximal constrictor response to norepinephrine compared with control vessels (in words) [1, 10]: paradoxical trend toward increased maximal constrictor response; Effect on norepinephrine-induced contraction (in words) [1, 11]: no inhibitory effect; Maximal constrictor response to phenylephrine compared with control vessels (in words) [2, 10]: paradoxical trend toward increased maximal constrictor response; Effect on phenylephrine-induced contraction (in words) [2, 11]: no inhibitory effect
2 | CC(COc1ccccc1)N(CCCl)Cc1ccccc1 (centres unmarked) [phenoxybenzamine] | 0.80 ± 0.05^b grams of tension | −0.58 ± 0.05^b grams of tension | −1.62 ± 0.36^b grams of tension | 2.03 ± 0.13 ^b grams of tension | 0.20 ± 0.01^b grams of tension | −1.08 ± 0.19^b grams of tension | −7%±1% | −12%±4% | Maximal constriction response to norepinephrine, % of KCl response [1, 13]: −5%±5%; Maximal constriction response to norepinephrine, % of KCl response [1, 14]: −20%±5%; Constriction response to the maximum concentration of phenylephrine, % of KCl response [2, 12]: 19%±8%; Constriction response to the maximum concentration of phenylephrine, % of KCl response [2, 13]: 1%±4%; Maximum relaxation response to the highest concentration of acetylcholine ([3]; after 24 hours of storage): 57%±6%; Maximum relaxation response to the highest concentration of acetylcholine ([3]; after 48 hours of storage): 30%±5%; Maximum relaxation response to the highest concentration of acetylcholine ([3]; at 2 hours of storage): 61%±5%; Attenuation of vasoconstriction response to PE, % of control ([4]; 10 μM PBZ): 63%; Contraction at the highest concentration of PE, % of the KCl response ([4]; 10 μM PBZ 30 min in addition to papaverine/lidocaine): 16.5±4.3%; Attenuation of vasoconstriction response to PE, % of control ([4]; 100 μM PBZ): 80%; Contraction at the highest concentration of PE, % of the KCl response ([4]; 100 μM PBZ 30 min in addition to papaverine/lidocaine): 8.7±5.1%; Attenuation of vasoconstriction response to PE, % of control ([4]; 1000 μM PBZ): 116%; Contraction at the highest concentration of PE, % of the KCl response ([4]; 1000 μM PBZ 30 min in addition to papaverine/lidocaine): −7.2±4.4%; Effect on constriction to NE (in words) ([5]; PBZ at 10 μM): inhibited constriction to concentrations of NE greater than 7 μM; Effect on constrictor responses to NE (in words) ([5]; PBZ at 1000 μM, across all concentrations of NE): completely inhibited; Relaxation response to ACh (percent tension reduction from U46619 contraction) [6]: 81.0±11.8%
3 | CC(=O)C(C)=NO [BDM, 2,3-butadione monoxime] | 5.69 ± 0.29 grams of tension | 4.22 ± 0.75 grams of tension | 7.01 ± 0.85 grams of tension | 8.35 ± 0.79 grams of tension | 9.43 ± 0.64 grams of tension | 7.01 ± 0.80 grams of tension | approximately 75% | approximately 39% | Constriction responses to norepinephrine compared with control vessels (in words) ([1]; after 24 hours and 48 hours of drug-free storage): similar; Constrictor responses to phenylephrine compared with control segments (in words) ([2]; at 2 hours and 24 hours): very similar
